# Results published in publication PMC3433420 (PLoS ONE, 2012).
# Residues, ends and D or L forms follow the SMILES beside them.
# How the values were obtained:
# [1] = target: T1, SH2 and PTB domains (Homo sapiens, UniProt P42680); experiment: In-house protein microarrays (with or without 5 mM DTT), protein named per line; format: binding; conditions: protein TEC
# T1 construct: thioredoxin; made in house; host or cells: BL21(DE3)pLysS E. coli
# T1 sequence (P42680 1-631): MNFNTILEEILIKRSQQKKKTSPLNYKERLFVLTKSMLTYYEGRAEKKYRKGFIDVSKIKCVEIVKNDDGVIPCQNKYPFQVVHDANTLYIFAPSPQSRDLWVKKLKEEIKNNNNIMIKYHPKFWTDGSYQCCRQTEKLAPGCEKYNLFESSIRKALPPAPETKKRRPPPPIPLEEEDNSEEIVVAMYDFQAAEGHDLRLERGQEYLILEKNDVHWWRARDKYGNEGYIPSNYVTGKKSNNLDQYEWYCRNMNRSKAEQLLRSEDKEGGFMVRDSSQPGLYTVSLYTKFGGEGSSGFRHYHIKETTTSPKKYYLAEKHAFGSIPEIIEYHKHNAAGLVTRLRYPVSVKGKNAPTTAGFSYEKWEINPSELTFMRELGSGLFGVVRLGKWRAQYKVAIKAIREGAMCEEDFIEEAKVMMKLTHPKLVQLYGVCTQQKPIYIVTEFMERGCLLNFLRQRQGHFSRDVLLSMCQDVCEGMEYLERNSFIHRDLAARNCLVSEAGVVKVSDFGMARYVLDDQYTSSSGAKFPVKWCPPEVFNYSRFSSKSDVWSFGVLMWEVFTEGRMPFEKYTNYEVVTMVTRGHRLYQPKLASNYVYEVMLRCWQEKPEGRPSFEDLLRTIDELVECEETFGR
# In short: (§1)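 KD values come from rhodamine fluorescence of duplicate spots after subtraction of a thioredoxin control. Domains were printed at ~40 µM on aldehyde slides, blocked 1 h at room temperature in pH 7.8 HEPES/KCl buffer with 5 mM DTT and 1% BSA, then peptide-probed.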
# [2] = target: T2, SH2 and PTB domains (Homo sapiens, UniProt P43403); experiment: as above; format: binding
# T2 construct: thioredoxin; made in house; host or cells: BL21(DE3)pLysS E. coli
# T2 sequence (P43403 1-619): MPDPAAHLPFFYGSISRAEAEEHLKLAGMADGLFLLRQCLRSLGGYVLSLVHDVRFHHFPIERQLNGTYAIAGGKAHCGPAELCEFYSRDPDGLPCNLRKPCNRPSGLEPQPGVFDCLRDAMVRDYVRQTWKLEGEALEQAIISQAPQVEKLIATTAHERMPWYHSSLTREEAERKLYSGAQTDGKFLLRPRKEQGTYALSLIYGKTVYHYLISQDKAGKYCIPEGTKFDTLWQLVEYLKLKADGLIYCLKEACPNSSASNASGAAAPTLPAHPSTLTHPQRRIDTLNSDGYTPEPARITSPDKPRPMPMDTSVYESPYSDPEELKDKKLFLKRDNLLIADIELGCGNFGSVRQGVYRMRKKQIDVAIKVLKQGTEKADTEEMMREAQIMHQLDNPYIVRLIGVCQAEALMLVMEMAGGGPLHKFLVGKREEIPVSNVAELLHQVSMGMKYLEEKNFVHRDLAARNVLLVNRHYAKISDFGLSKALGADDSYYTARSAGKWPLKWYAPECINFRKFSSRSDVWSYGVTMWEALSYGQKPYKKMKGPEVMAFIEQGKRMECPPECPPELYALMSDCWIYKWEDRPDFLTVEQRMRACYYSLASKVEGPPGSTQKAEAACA
# In short: as §1
# [3] = target: T3, SH2 and PTB domains (Homo sapiens, UniProt P46109); experiment: as above; format: binding; conditions: protein CRKL
# T3 construct: thioredoxin; made in house; host or cells: BL21(DE3)pLysS E. coli
# T3 sequence (P46109 whole entry, the tested form may be a part): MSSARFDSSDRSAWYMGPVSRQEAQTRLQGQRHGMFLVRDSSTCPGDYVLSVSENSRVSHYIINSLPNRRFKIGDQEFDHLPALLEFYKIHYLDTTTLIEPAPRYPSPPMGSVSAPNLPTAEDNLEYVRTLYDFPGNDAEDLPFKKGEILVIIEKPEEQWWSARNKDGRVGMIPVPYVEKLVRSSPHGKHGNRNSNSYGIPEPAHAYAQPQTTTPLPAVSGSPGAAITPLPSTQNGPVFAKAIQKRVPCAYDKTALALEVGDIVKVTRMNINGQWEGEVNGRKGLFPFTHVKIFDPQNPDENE
# In short: as §1
# [4] = target: T4, SH2 and PTB domains (Homo sapiens, UniProt Q7M4L6); experiment: as above; format: binding; conditions: protein SHF
# T4 construct: thioredoxin; made in house; host or cells: BL21(DE3)pLysS E. coli
# T4 sequence (Q7M4L6 whole entry, the tested form may be a part): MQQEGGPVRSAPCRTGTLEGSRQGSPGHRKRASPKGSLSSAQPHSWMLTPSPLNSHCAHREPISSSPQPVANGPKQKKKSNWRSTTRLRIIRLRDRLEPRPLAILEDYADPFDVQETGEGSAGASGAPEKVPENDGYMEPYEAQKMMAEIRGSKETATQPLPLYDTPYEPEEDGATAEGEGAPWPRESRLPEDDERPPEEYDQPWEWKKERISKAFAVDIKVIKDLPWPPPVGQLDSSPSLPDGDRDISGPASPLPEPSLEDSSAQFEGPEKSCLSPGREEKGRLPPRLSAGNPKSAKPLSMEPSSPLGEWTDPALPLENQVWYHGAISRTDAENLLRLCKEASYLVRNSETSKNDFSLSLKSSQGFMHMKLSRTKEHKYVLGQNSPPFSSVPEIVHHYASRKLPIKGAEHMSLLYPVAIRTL
# In short: as §1
# [5] = target: T5, PTPN11-N SH2 domain (Homo sapiens, UniProt Q06124); experiment: FP saturation binding assay
# T5 sequence (Q06124 6-102 limits assumed): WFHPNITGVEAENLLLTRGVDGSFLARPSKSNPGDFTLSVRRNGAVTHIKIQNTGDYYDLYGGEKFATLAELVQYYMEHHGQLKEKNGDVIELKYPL
# [6] = PM assay replicate # 39336, array fabrication # 39329
# [7] = PM assay replicate # 39307, array fabrication # 39286
# [8] = PM assay replicate # 39337, array fabrication # 39329
smiles,measurement,setting,value
CC(C)C[C@H](NC(=O)[C@@H]1CCCN1)C(=O)N[C@@H](CCC(N)=O)C(=O)N[C@@H](CCCNC(=N)N)C(=O)N[C@@H](Cc1ccc(OP(=O)(O)O)cc1)C(=O)N[C@@H](CO)C(=O)N[C@@H](CCC(=O)O)C(=O)N[C@@H](CC(=O)O)C(=O)N1CCC[C@H]1C(=O)N[C@H](C(=O)N[C@H](C(=O)N1CCC[C@H]1C(=O)N[C@@H](CC(=O)O)C(=O)O)C(C)C)[C@@H](C)O [ErbB2 pY1112] (HELM PEPTIDE1{P.L.Q.R.[O=C([C@H](Cc1ccc(OP(=O)(O)O)cc1)N[*:1])[*:2]].S.E.D.P.T.V.P.D}$$$$V2.0),Kd,"[1]; PM assay replicate # 39331, array fabrication # 39329",26530 nM
same,Kd,[1]; [6],5070 nM
CC[C@H](C)[C@H](NC(=O)[C@H](CC(N)=O)NC(=O)[C@H](CC(N)=O)NC(=O)[C@H](CCCCN)NC(=O)[C@H](CC(C)C)NC(=O)[C@H](Cc1ccc(OP(=O)(O)O)cc1)NC(=O)[C@H](CCC(=O)O)NC(=O)[C@H](C)NC(=O)[C@H](CCCCN)NC(=O)CNC(=O)[C@H](CC(C)C)NC(=O)[C@@H](NC(=O)[C@H](CC(N)=O)NC(=O)[C@H](C)NC(=O)[C@@H](N)Cc1ccccc1)[C@@H](C)O)C(=O)N[C@@H](CC(C)C)C(=O)N[C@@H](CO)C(=O)N[C@@H](CC(=O)O)C(=O)O [ErbB4 pY1221 (18-mer)] (HELM PEPTIDE1{F.A.N.T.L.G.K.A.E.[O=C([C@H](Cc1ccc(OP(=O)(O)O)cc1)N[*:1])[*:2]].L.K.N.N.I.L.S.D}$$$$V2.0),Kd,"[2]; protein ZAP70-C, PM assay replicate # 39352, array fabrication # 39336",790 nM
same,Kd,[3]; [7],110 nM
same,Kd,[4]; [7],1190 nM
CCN(CC)c1ccc2c(-c3ccc(C(=O)N[C@@H](CC(N)=O)C(=O)NCC(=O)N4CCC[C@H]4C(=O)N4CCC[C@H]4C(=O)N[C@@H](CCCCN)C(=O)N[C@@H](C)C(=O)N[C@@H](CCC(=O)O)C(=O)N[C@@H](CC(=O)O)C(=O)N[C@@H](CCC(=O)O)C(=O)N[C@@H](Cc4ccc(OP(=O)(O)O)cc4)C(=O)N[C@H](C(=O)N[C@@H](CC(N)=O)C(=O)N[C@@H](CCC(=O)O)C(=O)N4CCC[C@H]4C(=O)N[C@@H](CC(C)C)C(=O)N[C@@H](Cc4ccc(O)cc4)C(=O)N[C@@H](CC(C)C)C(=O)N[C@@H](CC(=O)O)C(=O)O)C(C)C)cc3C(=O)[O-])c3ccc(=[N+](CC)CC)cc-3oc2c1 [ErbB4 1202 (18-mer)] (HELM PEPTIDE1{[CCN(CC)c1ccc2c(-c3ccc(C(=O)[*:2])cc3C(=O)[O-])c3ccc(=[N+](CC)CC)cc-3oc2c1].N.G.P.P.K.A.E.D.E.[O=C([C@H](Cc1ccc(OP(=O)(O)O)cc1)N[*:1])[*:2]].V.N.E.P.L.Y.L.D}$$$$V2.0),Kd,[4]; [8],11920 nM
CC(C)[C@H](NC(=O)[C@H](CC(=O)O)NC(=O)[C@@H]1CCCN1C(=O)[C@H](CCC(N)=O)NC(=O)[C@H](CC(N)=O)NC(=O)[C@@H](NC(=O)[C@H](Cc1ccc(OP(=O)(O)O)cc1)NC(=O)[C@H](CCC(=O)O)NC(=O)[C@@H]1CCCN1C(=O)[C@H](CCC(N)=O)NC(=O)[C@@H]1CCCN1)C(C)C)C(=O)N[C@@H](CCCNC(=N)N)C(=O)N[C@@H](CC(=O)O)C(=O)O [ErbB2 1139 13-mer] (HELM PEPTIDE1{P.Q.P.E.[O=C([C@H](Cc1ccc(OP(=O)(O)O)cc1)N[*:1])[*:2]].V.N.Q.P.D.V.R.D}$$$$V2.0),Kd,[5],8860 nM
CSCC[C@H](NC(=O)[C@H](Cc1ccc(OP(=O)(O)O)cc1)NC(=O)[C@H](CCC(=O)O)NC(=O)[C@H](Cc1ccc(O)cc1)NC(=O)CNC(=O)[C@@H](N)CC(C)C)C(=O)N[C@@H](CC(=O)O)C(=O)N[C@H](C(=O)NCC(=O)N[C@@H](CO)C(=O)N[C@@H](CC(=O)O)C(=O)N[C@@H](CC(C)C)C(=O)N[C@@H](CC(=O)O)C(=O)O)C(C)C [ErbB3 1224 13-mer] (HELM PEPTIDE1{L.G.Y.E.[O=C([C@H](Cc1ccc(OP(=O)(O)O)cc1)N[*:1])[*:2]].M.D.V.G.S.D.L.D}$$$$V2.0),Kd,[5],4800 nM
CC(C)C[C@H](NC(=O)[C@@H]1CCCN1C(=O)[C@H](C)NC(=O)[C@@H](NC(=O)[C@H](Cc1ccc(OP(=O)(O)O)cc1)NC(=O)CNC(=O)[C@H](CC(=O)O)NC(=O)[C@@H](NC(=O)[C@@H](N)CCC(=O)O)[C@@H](C)O)C(C)C)C(=O)N[C@H](C(=O)N[C@@H](CS)C(=O)N[C@@H](CO)C(=O)N[C@@H](CC(=O)O)C(=O)O)[C@@H](C)O [ErbB2 pY1127],Kd,[1]; [6],1600 nM
same,Kd,[1]; [8],40 nM
same,Kd,"[1]; PM assay replicate # 39603, array fabrication # 39392",250 nM
same,Kd,"[2]; protein ZAP70-NC, PM assay replicate # 39336, array fabrication # 39329",2410 nM
same,Kd,"[2]; protein ZAP70-NC, PM assay replicate # 39337, array fabrication # 39329",2010 nM
same,Kd,[3]; [6],4800 nM
same,Kd,[3]; [8],640 nM
